In ChEMBL document CHEMBL5528046, “Discovery of Novel PROTAC Degraders of p300/CBP as Potential Therapeutics for Hepatocellular Carcinoma” (J Med Chem, 2024):
The source made the active and inactive calls. The rule behind the calls is not given here.

What was measured:
[1] = target: T1, Protein cereblon/Histone acetyltransferase p300 (Homo sapiens, UniProt Q09472+Q96SW2); experiment: PROTAC activity at CRBN/p300 in human SK-HEP1 cells assessed as increase in protein ubiquitination at 2 uM incubated for 24 hrs by immunoblotting analysis (reference value: 100%); assay type: cell-based
Mus musculus = experiment: In vivo PROTAC activity at CRBN/p300 in nude mouse xenografted with human SK-HEP1 cells assessed as reduction in p300 protein level in tumor at 50 mg/kg, ip measured after 24 hrs by immunoblotting analysis; assay type: functional, organism-based
[2] = target: T1, Protein cereblon/Histone acetyltransferase p300; experiment: PROTAC activity at CRBN/p300 in human SK-HEP1 cells assessed as induction of p300 degradation by measuring residual activity at 0.5 uM pretreated with MLN4924 at 0.1 uM followed by compound addition by immunoblotting analysis relative to control; assay type: cell-based
[3] = target: T1, Protein cereblon/Histone acetyltransferase p300; experiment: PROTAC activity at CRBN/p300 in human SK-HEP1 cells assessed as induction of p300 degradation by measuring residual activity at 0.5 uM pretreated with MLN4924 at 0.5 uM followed by compound addition by immunoblotting analysis relative to control; assay type: cell-based
[4] = target: T2, Protein cereblon/CREB-binding protein (Homo sapiens) (UniProt Q92793+Q96SW2); experiment: PROTAC activity at CRBN/CBP in human SK-HEP1 cells assessed as induction of […] protein degradation by measuring residual activity at 0.5 uM incubated for 24 hrs by immunoblotting analysis (reference value: 100%); assay type: cell-based
SK-HEP1 [5] = experiment: Downregulation of ABI3BP mRNA expression in human SK-HEP1 cells at 1 uM incubated for 24 hrs by RT-qPCR analysis; assay type: functional, cell-based
[6] = target: T1, Protein cereblon/Histone acetyltransferase p300; experiment: PROTAC activity at CRBN/p300 in human SK-HEP1 cells assessed as induction of p300 protein degradation at 0.1 uM incubated for 24 hrs relative to control; assay type: cell-based
[7] = Antiproliferative activity against human JHH7 cells assessed as inhibition of cell growth incubated for 5 days by CCK-8 assay; assay type: functional, cell-based; details: JHH7, 120 h
[8] = target: T2, Protein cereblon/CREB-binding protein (Homo sapiens); experiment: PROTAC activity at CRBN/CBP in human SK-HEP1 cells assessed as induction of […] protein degradation by measuring residual activity at 2 uM incubated for 24 hrs by immunoblotting analysis (reference value: 100%); assay type: cell-based
[9] = target: T1, Protein cereblon/Histone acetyltransferase p300; experiment: PROTAC activity at CRBN/p300 in human SK-HEP1 cells assessed as induction of p300 protein degradation by measuring residual activity at 2 uM incubated for 24 hrs by immunoblotting analysis (reference value: 100%); assay type: cell-based
[10] = target: T2, Protein cereblon/CREB-binding protein (Homo sapiens); experiment: In vivo PROTAC activity at CRBN/CBP in nude mouse xenografted with human SK-HEP1 cells assessed as reduction in CBP protein level in tumor at 50 mg/kg, ip measured after 24 hrs by immunoblotting analysis; assay type: functional, organism-based
SK-HEP1 [11] = experiment: Downregulation of COL3A1 mRNA expression in human SK-HEP1 cells at 1 uM incubated for 24 hrs by RT-qPCR analysis; assay type: functional, cell-based
[12] = target: T1, Protein cereblon/Histone acetyltransferase p300; experiment: PROTAC activity at CRBN/p300 in human SK-HEP1 cells assessed as induction of p300 degradation by measuring increase in p21 level at 0.5 uM pretreated with MG-132 at 1 uM followed by compound addition by immunoblotting analysis relative to control; assay type: cell-based
[13] = target: T1, Protein cereblon/Histone acetyltransferase p300; experiment: PROTAC activity at CRBN/p300 in human SK-HEP1 cells assessed as induction of p300 protein degradation by measuring residual activity at 1 uM incubated for 12 hrs by immunoblotting analysis (reference value: 100%); assay type: cell-based
[14] = target: T1, Protein cereblon/Histone acetyltransferase p300; experiment: PROTAC activity at CRBN/p300 in human SK-HEP1 cells assessed as induction of p300 degradation by measuring residual activity at 0.5 uM pretreated with thalidomide at 0.5 uM followed by compound addition by immunoblotting analysis relative to control; assay type: cell-based
SK-HEP1 [15] = experiment: Inhibition of colony formation in human SK-HEP1 cells at 1 uM incubated for 14 days with compound containing media replacement for every 3 days by crystal violet staining based assay relative to control; assay type: functional; details: SK-HEP1, 336 h, time 14 day
SK-HEP1 [16] = experiment: Induction of cell cycle arrest at G2/M phase in human SK-HEP1 cells assessed as reduction in CDK6 protein level at 2 uM incubated for 24 hrs by immunoblotting analysis (reference value: 100%); assay type: functional; parameters: scale not given: the % may be the effect or the level left
SK-HEP1 [17] = experiment: Induction of cell cycle arrest at G2/M phase in human SK-HEP1 cells assessed as CDK6 protein level at 1 uM incubated for 24 hrs by immunoblotting analysis (reference value: 100%); assay type: functional
SK-HEP1 [18] = experiment: Induction of cell cycle arrest at G2/M phase in human SK-HEP1 cells assessed as SKP2 protein level at 1 uM incubated for 24 hrs by immunoblotting analysis (reference value: 100%); assay type: functional
SK-HEP1 [19] = experiment: Antiproliferative activity against human SK-HEP1 cells assessed as inhibition of cell growth incubated for 5 days by CCK-8 assay; assay type: functional, cell-based; details: SK-HEP1, 120 h
[20] = target: T1, Protein cereblon/Histone acetyltransferase p300; experiment: PROTAC activity at CRBN/p300 in human SK-HEP1 cells assessed as induction of p300 degradation by measuring residual activity at 0.5 uM pretreated with MG-132 followed by compound addition by immunoblotting analysis relative to control; assay type: cell-based
SK-HEP1 [21] = experiment: Downregulation of POSTN mRNA expression in human SK-HEP1 cells at 1 uM incubated for 24 hrs by RT-qPCR analysis; assay type: functional, cell-based
[22] = target: T2, Protein cereblon/CREB-binding protein (Homo sapiens); experiment: PROTAC activity at CRBN/CBP in human SK-HEP1 cells assessed as induction of […] protein degradation by measuring residual activity at 1 uM incubated for 24 hrs by immunoblotting analysis (reference value: 100%); assay type: cell-based
[23] = target: T1, Protein cereblon/Histone acetyltransferase p300; experiment: PROTAC activity at CRBN/p300 in human SK-HEP1 cells with siRNA mediated CRBN knockdown assessed as induction of p300 degradation by measuring residual activity at 1 uM by immunoblotting analysis relative to control; assay type: cell-based
[24] = target: T1, Protein cereblon/Histone acetyltransferase p300; experiment: PROTAC activity at CRBN/p300 in human SK-HEP1 cells assessed as induction of p300 protein degradation by measuring residual activity at 250 nM incubated for 24 hrs by immunoblotting analysis (reference value: 100%); assay type: cell-based
[25] = target: T1, Protein cereblon/Histone acetyltransferase p300; experiment: PROTAC activity at CRBN/p300 in human SK-HEP1 cells assessed as induction of p300 protein degradation at 1 uM incubated for 24 hrs relative to control; assay type: cell-based
SK-HEP1 [26] = experiment: Downregulation of IGFBP3 mRNA expression in human SK-HEP1 cells at 1 uM incubated for 24 hrs by RT-qPCR analysis; assay type: functional, cell-based
SK-HEP1 [27] = experiment: Induction of cell cycle arrest at G2/M phase in human SK-HEP1 cells assessed as SKP2 protein level at 2 uM incubated for 24 hrs by immunoblotting analysis (reference value: 100%); assay type: functional
[28] = target: T1, Protein cereblon/Histone acetyltransferase p300; experiment: PROTAC activity at CRBN/p300 in human SK-HEP1 cells assessed as induction of p300 protein degradation incubated for 24 hrs by immunoblotting analysis; assay type: cell-based
SK-HEP1 [29] = experiment: Induction of cell cycle arrest at G2/M phase in human SK-HEP1 cells assessed as CDK6 protein level at 0.5 uM incubated for 24 hrs by immunoblotting analysis (reference value: 100%); assay type: functional

T2 sequence (Q92793 2-2442 limits assumed): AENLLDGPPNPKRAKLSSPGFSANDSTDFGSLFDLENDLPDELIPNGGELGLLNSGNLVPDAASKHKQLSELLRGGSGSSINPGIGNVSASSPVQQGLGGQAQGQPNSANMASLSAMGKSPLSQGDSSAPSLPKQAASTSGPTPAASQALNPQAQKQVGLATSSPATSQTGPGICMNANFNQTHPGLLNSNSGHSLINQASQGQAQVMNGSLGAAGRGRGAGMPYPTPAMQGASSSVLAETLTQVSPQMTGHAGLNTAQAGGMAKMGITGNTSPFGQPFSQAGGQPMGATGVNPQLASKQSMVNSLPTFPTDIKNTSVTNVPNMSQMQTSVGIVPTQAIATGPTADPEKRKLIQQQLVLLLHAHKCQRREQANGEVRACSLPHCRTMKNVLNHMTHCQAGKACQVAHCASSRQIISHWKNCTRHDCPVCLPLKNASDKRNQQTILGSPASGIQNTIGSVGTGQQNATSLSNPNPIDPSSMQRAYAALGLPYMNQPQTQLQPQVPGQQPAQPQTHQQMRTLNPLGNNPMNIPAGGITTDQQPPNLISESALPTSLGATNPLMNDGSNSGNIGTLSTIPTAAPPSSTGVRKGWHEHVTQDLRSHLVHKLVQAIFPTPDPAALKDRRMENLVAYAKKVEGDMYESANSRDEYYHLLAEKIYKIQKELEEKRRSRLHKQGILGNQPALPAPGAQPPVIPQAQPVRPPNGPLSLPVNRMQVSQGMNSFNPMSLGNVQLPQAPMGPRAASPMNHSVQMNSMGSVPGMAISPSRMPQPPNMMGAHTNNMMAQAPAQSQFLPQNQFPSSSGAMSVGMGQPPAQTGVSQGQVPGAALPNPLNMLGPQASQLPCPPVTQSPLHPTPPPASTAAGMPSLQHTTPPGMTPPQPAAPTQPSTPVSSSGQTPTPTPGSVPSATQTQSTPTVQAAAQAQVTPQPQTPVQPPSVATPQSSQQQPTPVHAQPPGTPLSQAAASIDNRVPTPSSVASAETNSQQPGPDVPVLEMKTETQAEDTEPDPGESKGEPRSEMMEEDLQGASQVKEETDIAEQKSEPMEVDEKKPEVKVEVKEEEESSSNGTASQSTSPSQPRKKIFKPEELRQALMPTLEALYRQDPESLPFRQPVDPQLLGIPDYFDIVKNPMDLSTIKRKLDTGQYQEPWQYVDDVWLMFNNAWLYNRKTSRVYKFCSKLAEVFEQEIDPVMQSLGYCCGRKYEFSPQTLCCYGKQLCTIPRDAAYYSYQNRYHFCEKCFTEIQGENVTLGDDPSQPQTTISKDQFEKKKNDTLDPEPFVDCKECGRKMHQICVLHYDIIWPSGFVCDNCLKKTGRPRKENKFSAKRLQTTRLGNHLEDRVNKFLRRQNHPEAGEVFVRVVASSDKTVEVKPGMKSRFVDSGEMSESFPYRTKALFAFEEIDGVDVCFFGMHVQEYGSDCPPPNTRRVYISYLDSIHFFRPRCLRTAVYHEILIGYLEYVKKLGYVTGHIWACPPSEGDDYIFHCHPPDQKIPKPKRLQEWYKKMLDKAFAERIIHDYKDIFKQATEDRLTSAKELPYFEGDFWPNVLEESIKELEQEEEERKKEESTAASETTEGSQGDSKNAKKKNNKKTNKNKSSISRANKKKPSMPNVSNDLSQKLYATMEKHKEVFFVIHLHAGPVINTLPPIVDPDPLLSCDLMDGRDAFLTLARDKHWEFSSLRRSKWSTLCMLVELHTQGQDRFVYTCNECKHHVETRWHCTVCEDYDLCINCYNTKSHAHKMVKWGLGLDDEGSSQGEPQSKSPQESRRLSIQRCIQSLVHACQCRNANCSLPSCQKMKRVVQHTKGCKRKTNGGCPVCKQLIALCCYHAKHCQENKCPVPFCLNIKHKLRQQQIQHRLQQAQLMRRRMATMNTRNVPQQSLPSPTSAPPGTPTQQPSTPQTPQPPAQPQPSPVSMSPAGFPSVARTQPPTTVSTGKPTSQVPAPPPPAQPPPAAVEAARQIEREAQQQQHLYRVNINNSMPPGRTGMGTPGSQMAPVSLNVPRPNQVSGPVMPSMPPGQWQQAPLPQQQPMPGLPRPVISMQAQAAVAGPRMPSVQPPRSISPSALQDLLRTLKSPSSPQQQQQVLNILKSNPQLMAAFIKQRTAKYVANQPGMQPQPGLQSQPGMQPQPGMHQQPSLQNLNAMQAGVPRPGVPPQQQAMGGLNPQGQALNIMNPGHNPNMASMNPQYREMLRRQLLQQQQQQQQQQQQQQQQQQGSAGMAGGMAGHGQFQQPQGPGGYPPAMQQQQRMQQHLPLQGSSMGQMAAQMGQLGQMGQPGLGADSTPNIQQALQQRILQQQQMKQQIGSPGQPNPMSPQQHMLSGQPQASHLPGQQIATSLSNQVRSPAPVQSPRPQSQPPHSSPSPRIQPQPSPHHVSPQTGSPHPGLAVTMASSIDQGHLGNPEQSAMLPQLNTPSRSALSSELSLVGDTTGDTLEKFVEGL
T2 sequence (Q96SW2 whole entry partner): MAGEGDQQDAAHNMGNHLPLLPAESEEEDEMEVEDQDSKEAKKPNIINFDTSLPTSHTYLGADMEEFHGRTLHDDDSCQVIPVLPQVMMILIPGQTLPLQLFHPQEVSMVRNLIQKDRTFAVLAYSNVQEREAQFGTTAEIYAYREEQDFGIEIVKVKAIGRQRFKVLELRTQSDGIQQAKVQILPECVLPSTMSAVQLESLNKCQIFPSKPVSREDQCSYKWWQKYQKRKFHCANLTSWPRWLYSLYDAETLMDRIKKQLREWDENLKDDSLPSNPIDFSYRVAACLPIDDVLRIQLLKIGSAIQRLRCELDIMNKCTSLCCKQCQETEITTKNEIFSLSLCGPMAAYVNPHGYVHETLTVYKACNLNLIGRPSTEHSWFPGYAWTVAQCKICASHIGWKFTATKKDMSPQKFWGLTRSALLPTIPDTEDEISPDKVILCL

## Cc1noc(C)c1-c1ccc2c(c1)nc([C@@H]1CCCC(=O)N1c1ccc(F)c(F)c1)n2C1CCN(C2CN(c3ccc4c(c3)C(=O)N(C3CCC(=O)NC3=O)C4=O)C2)CC1 (stereo partly specified)
[1]
  Activity: 125%
Mus musculus
  Activity: Active
[2]
  Activity: 115%
[3]
  Activity: 101%
[4]
  Activity: 98%
SK-HEP1 [5]
  Activity: Active
[6]
  Activity: 27%
[7]
  IC50: 447 nM
[8]
  Activity: 89%
[9]
  Activity: 62%
[10]
  Activity: Active
SK-HEP1 [11]
  Activity: Active
[12]
  Activity: 537%
[13]
  Activity: 58%
[14]
  Activity: 99%
SK-HEP1 [15]
  inhibition at 1 µM: > 70%
SK-HEP1 [16]
  Activity: 87%
SK-HEP1 [17]
  Activity: 102%
SK-HEP1 [18]
  Activity: 88%
SK-HEP1 [19]
  IC50: 733 nM
[20]
  Activity: 93%
SK-HEP1 [21]
  Activity: Active
[22]
  Activity: 92%
[23]
  Activity: 78%
[24]
  Activity: 38%
[25]
  Activity: 47%
SK-HEP1 [26]
  Activity: Active
SK-HEP1 [27]
  Activity: 60%
[28]
  Activity: Dose-Dependent Effect
  DC50: 93 nM
SK-HEP1 [29]
  Activity: 104%
